From US20160264593A1 (priority 2013, published 2016)
Where two headings read alike, the source gives them in different places.

Test: Pharmacokinetic study of 157 (and metabolite endothal) in SD rats, iv and po; plasma, liver, brain
Assay type: in vivo
Settings: for Tmax: read-out: Tmax; for MRT last: read-out: MRT (0-t); for half-life: read-out: T1/2 (converted); for concentration at 2 h / 157 brain concentration: 2 hr
Method: The blood, liver and brain tissue samples were collected at predetermined times from rats. […] Compound were diluted shortly before use in 4% sodium bicarbonate for sterile injection (this is the standard pediatric solution of NaHCO3 with a pH of about 8.5).
Compound 153 was freshly prepared by diluting the drugs shortly before use in 4% sodium bicarbonate for sterile injection (this is the standard pediatric solution of NaHCO3 with a pH of about 8.5). The final concentrations of 153 solutions were 0.25 mg/mL. The 153 solutions were administered via iv or po route at dose volume of 5 ml/kg according to the latest body weight. Compound 157 was freshly prepared by diluting the drugs shortly before use in 4% sodium bicarbonate for sterile injection (this is the standard pediatric solution of NaHCO3 with a pH of about 8.5). The final concentrations of […] solutions were 0.3 mg/mL. The 157 solutions were administered via iv or po route at dose volume of 5 ml/kg according to the latest body weight.
Twelve (12) female SD rats per group were dosed by iv with 153 or 157. The rats were fasted overnight prior to dosing, with free access to water. Foods were withheld for 2 hours post-dose. Blood, liver and brain tissue samples in two animals each group were collected at each time point, within 10% of the scheduled time for each time point. Two extra animals were used for analytic method development.
Blood (>0.3 mL) were collected via aorta abdominalis in anaesthetic animals into tubes containing heparin at 15 min, 1, 2, 6, 10 and 24 hours after iv administration. Liver and brain tissues were collected immediately after animal death. The liver and brain tissues were excised and rinsed with cold saline to avoid blood residual. Upon collection, each sample was placed on ice and the blood samples were subsequently centrifuged (4° C., 11000 rpm, 5 min) to separate plasma. The obtained plasma, liver and brain tissue samples were stored at −70° C. until LC-MS/MS analysis.
Two (2) female SD rats per group were dosed by po with 153 or 157. The rats were fasted overnight prior to dosing, with free access to water. Foods were withheld for 2 hours post-dose. Blood samples (>0.3 mL) were collected via aorta abdominalis in anaesthetic animals into tubes containing heparin at 30 min, 1, 2, 6, 10 and 24 hours after po administration.
To each sample, 30 μL IS-D (for blank samples, 20 μL acetonitrile:water (1:1) was added) and 300 μl acetonitrile was added. The sample mixture was vortexed for approximately 3 min. After centrifugation at 10000 rpm for 5 min at 4° C., 100 μL of the upper layer was transferred to a new tube and added 200 μL 0.4% formic acid in water (pH6.0). The mixture was vortexed for approximately 3 min before injected onto the LC/MS/MS system for analysis.
On the day of the assay, the frozen liver and brain samples were thawed unassisted at room temperature. An about 200 mg weighed sample of each thawed tissue was placed into a plastic tube with water (0.6 mL) to facilitate homogenization. Tissue processing was conducted using a homogenizer for approximately 1 min, 100 μl homogenate was transferred into a fresh Eppendorf tube. To each tube, 50 μL IS-D was added and mixed. Then 500 μl acetonitrile was added and the sample mixture was vortexed for approximately 3 min. After centrifugation at 10000 rpm for 5 min at 4° C., 100 μL of the upper layer was transferred to a new tube and evaporate the supernatant to dryness at 35° C. Reconstitute the residue with 200 μL of 0.4% formic acid in water (pH 6.0), and vortex for 3 min, submit for LC-MS/MS analysis.
Frozen unknown plasma samples were completely thawed at room temperature and vortexed thoroughly. With a pipette, 50 μL of plasma was transferred into a 2.0 mL Eppendorf tube. 50 μL of 0.1N HCl and 800 μL ethyl acetate were added into each sample. The sample mixture was vortexed for approximately 3 min.

[1] = female, Sprague-Dawley (SD), rat, in vivo, iv, 1.5 mg/kg, 157 in Brain, iv 1.5 mg/kg, Mean
[2] = female, Sprague-Dawley (SD), rat, in vivo, iv, 1.5 mg/kg, 157 in Brain, iv 1.5 mg/kg, rat 1
[3] = female, Sprague-Dawley (SD), rat, in vivo, iv, 1.5 mg/kg, 157 in Brain, iv 1.5 mg/kg, rat 2
[4] = female, Sprague-Dawley (SD), rat, in vivo, iv, 1.5 mg/kg, 157 in Liver, iv 1.5 mg/kg, Mean
[5] = female, Sprague-Dawley (SD), rat, in vivo, iv, 1.5 mg/kg, 157 in Liver, iv 1.5 mg/kg, rat 1
[6] = female, Sprague-Dawley (SD), rat, in vivo, iv, 1.5 mg/kg, 157 in Liver, iv 1.5 mg/kg, rat 2
[7] = female, Sprague-Dawley (SD), rat, in vivo, iv, 1.5 mg/kg, iv 1.5 mg/kg, Mean, read-out: 157 plasma concentration
[8] = female, Sprague-Dawley (SD), rat, in vivo, iv, 1.5 mg/kg, iv 1.5 mg/kg, Rat 1, read-out: 157 liver concentration
[9] = female, Sprague-Dawley (SD), rat, in vivo, iv, 1.5 mg/kg, iv 1.5 mg/kg, Rat 1, read-out: 157 plasma concentration
[10] = female, Sprague-Dawley (SD), rat, in vivo, iv, 1.5 mg/kg, iv 1.5 mg/kg, Rat 2, read-out: 157 liver concentration
[11] = female, Sprague-Dawley (SD), rat, in vivo, iv, 1.5 mg/kg, iv 1.5 mg/kg, Rat 2, read-out: 157 plasma concentration
[12] = female, Sprague-Dawley (SD), rat, in vivo, po, 1.5 mg/kg, 157 in plasma, PO 1.5 mg/kg, rat 2
[13] = female, Sprague-Dawley (SD), rat, in vivo, po, 1.5 mg/kg, PO 1.5 mg/kg, Mean, read-out: 157 plasma concentration
[14] = female, Sprague-Dawley (SD), rat, in vivo, po, 1.5 mg/kg, PO 1.5 mg/kg, Rat 1, read-out: 157 plasma concentration
[15] = female, Sprague-Dawley (SD), rat, in vivo, po, 1.5 mg/kg, PO 1.5 mg/kg, Rat 2, read-out: 157 plasma concentration

## CCCCCCCOC(=O)C1C2CCC(O2)C1C(=O)N1CCN(C)CC1 (centres unmarked) [Compound 157, 3-(4-Methylpiperazine-1-carbonyl)-7-oxa-bicyclo[2,2,1]heptane-2-carboxylic acid heptyl ester]
female, SD, rat, in vivo, iv, 1.5 mg/kg, iv 1.5 mg/kg, Rat 2, read-out: 157 liver concentration
  concentration at 1 h: 17.6 ng/g
female, SD, rat, in vivo, po, 1.5 mg/kg, 157 po 1.5 mg/kg, read-out: AUC of 157 in plasma
  AUC: 3.2 ng·h/mL
female, SD, rat, in vivo, po, 1.5 mg/kg, 157 po 1.5 mg/kg, read-out: Cmax of 157 in plasma
  Cmax: 6.14 ng/mL
female, SD, rat, in vivo, 157 iv 1.5 mg/kg, read-out: AUClast of 157 in plasma
  AUC(0-t): 47.2 ng·h/mL
female, SD, rat, in vivo, 157 po vs iv 1.5 mg/kg, read-out: BA (bioavailability) of 157
  bioavailability: 6.98%
female, Sprague-Dawley (SD), in vivo, 157 in plasma, PO 1.5 mg/kg, rat 2
  Tmax: 30 min
female, Sprague-Dawley (SD), rat, in vivo, iv, 1.5 mg/kg, 157 in Brain, iv 1.5 mg/kg, Mean, read-out: Cmax
  Cmax: 60 ng/g
[1]
  MRT last: 18.8 min
  half-life: 9.72 min
female, Sprague-Dawley (SD), rat, in vivo, iv, 1.5 mg/kg, 157 in Brain, iv 1.5 mg/kg, rat 1, read-out: Cmax
  Cmax: 60 ng/g
[2]
  MRT last: 18.3 min
  half-life: 9.18 min
female, Sprague-Dawley (SD), rat, in vivo, iv, 1.5 mg/kg, 157 in Brain, iv 1.5 mg/kg, rat 2, read-out: Cmax
  Cmax: 60 ng/g
[3]
  MRT last: 19.4 min
  half-life: 10.2 min
female, Sprague-Dawley (SD), rat, in vivo, iv, 1.5 mg/kg, 157 in Liver, iv 1.5 mg/kg, Mean, read-out: Cmax
  Cmax: 297 ng/g
[4]
  MRT last: 35.3 min
  half-life: 48.8 min
female, Sprague-Dawley (SD), rat, in vivo, iv, 1.5 mg/kg, 157 in Liver, iv 1.5 mg/kg, rat 1, read-out: Cmax
  Cmax: 337 ng/g
[5]
  MRT last: 31.9 min
  half-life: 27.3 min
female, Sprague-Dawley (SD), rat, in vivo, iv, 1.5 mg/kg, 157 in Liver, iv 1.5 mg/kg, rat 2, read-out: Cmax
  Cmax: 257 ng/g
[6]
  MRT last: 38.8 min
  half-life: 70.2 min
[7]
  concentration at 0.25 h: 115 ng/mL
  concentration at 1 h: 3.12 ng/mL
  concentration at 2 h: 0.524 ng/mL
[8]
  concentration at 0.25 h: 337 ng/g
  concentration at 2 h: 6.4 ng/g
[9]
  concentration at 0.25 h: 116 ng/mL
  concentration at 1 h: 2.67 ng/mL
  concentration at 2 h: 0.491 ng/mL
[10]
  concentration at 0.25 h: 257 ng/g
  concentration at 2 h: 9.72 ng/g
[11]
  concentration at 0.25 h: 114 ng/mL
  concentration at 1 h: 3.57 ng/mL
  concentration at 2 h: 0.556 ng/mL
female, Sprague-Dawley (SD), rat, in vivo, iv, 1.5 mg/kg, iv 1.5 mg/kg, Mean, read-out: 157 liver concentration
  concentration at 2 h: 8.06 ng/g
[12]
  AUC(0-inf): 3 ng·h/mL
  MRT last: 54.2 min
  half-life: 22.2 min
female, Sprague-Dawley (SD), rat, in vivo, po, 1.5 mg/kg, 157 in plasma, PO 1.5 mg/kg, rat 2, read-out: AUC
  AUC: 3 ng·h/mL
female, Sprague-Dawley (SD), rat, in vivo, po, 1.5 mg/kg, 157 in plasma, PO 1.5 mg/kg, rat 2, read-out: Cmax
  Cmax: 6.35 ng/mL
female, Sprague-Dawley (SD), rat, in vivo, po, 1.5 mg/kg, PO 1.5 mg/kg, Mean
  concentration at 0.5 h: 6.14 ng/mL
female, Sprague-Dawley (SD), rat, in vivo, po, 1.5 mg/kg, PO 1.5 mg/kg, Rat 1
  concentration at 0.5 h: 5.92 ng/mL
female, Sprague-Dawley (SD), rat, in vivo, po, 1.5 mg/kg, PO 1.5 mg/kg, Rat 2
  concentration at 0.5 h: 6.35 ng/mL
[13]
  concentration at 1 h: 1.37 ng/mL
  concentration at 2 h: 0.249 ng/mL
[14]
  concentration at 1 h: 1.48 ng/mL
  concentration at 2 h: 0.303 ng/mL
[15]
  concentration at 1 h: 1.26 ng/mL
  concentration at 2 h: 0.194 ng/mL
female, Sprague-Dawley (SD), rat, in vivo, 157 in Liver, iv 1.5 mg/kg, Mean
  Tmax: 15 min
Iv 1.5 mg/kg, Rat 1
  157 brain concentration: BLQ
Iv 1.5 mg/kg, Rat 2
  157 brain concentration: BLQ
Iv 1.5 mg/kg, 10 hr, Rat 2
  157 liver concentration: BLQ
